In PubChem BioAssay (NCI):
“And” between values parts separate entries of the source, which are not always exact repeats. Equal values may be shown once.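 Five concentrations, 48 hours, 96-well plates. Abbreviation: GI50, concentration required for 50% inhibition of growth. TGI marks complete inhibition of growth.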

Legend:
Test in all cases: inhibition of tumour cell growth, NCI panel, 48 h
OVCAR-4 ovarian = system: OVCAR-4 ovarian
A549 NSCLC = system: A549 NSCLC
HOP-62 NSCLC = system: HOP-62 NSCLC
EKVX NSCLC = system: EKVX NSCLC
HS 578T breast = system: HS 578T breast
CAKI-1 renal = system: CAKI-1 renal
HCT-15 colon = system: HCT-15 colon
SNB-75 CNS = system: SNB-75 CNS
LXFL 529 NSCLC = system: LXFL 529 NSCLC
KM20L2 colon = system: KM20L2 colon

| SMILES | GI50 (OVCAR-4 ovarian) | TGI (OVCAR-4 ovarian) [µM] | GI50 (A549 NSCLC) | TGI (A549 NSCLC) | GI50 (HOP-62 NSCLC) | TGI (HOP-62 NSCLC) | GI50 (EKVX NSCLC) | TGI (EKVX NSCLC) | GI50 (HS 578T breast) | TGI (HS 578T breast) | GI50 (CAKI-1 renal) | TGI (CAKI-1 renal) | GI50 (HCT-15 colon) | TGI (HCT-15 colon) | GI50 (SNB-75 CNS) | TGI (SNB-75 CNS) | TGI (LXFL 529 NSCLC) [µM] | TGI (KM20L2 colon) [µM] |
| --- | --- | --- | --- | --- | --- | --- | --- | --- | --- | --- | --- | --- | --- | --- | --- | --- | --- | --- |
| CCCn1c(N)c(C(=O)CNc2ccc(I)cc2)c(=O)[nH]c1=O | > 100 µM | > 100 | 2.1 µM | > 100 µM | 9.98 µM | > 100 µM | > 64.3 µM | > 100 µM | 17.4 µM | > 100 µM | 6.53 µM | > 100 µM | 0.264 µM | > 100 µM | 2.12 µM | > 40.1 µM |  |  |
| Cc1sc2ncn(Cc3ccc(Cl)c(Cl)c3)c(=O)c2c1C | 28.2 µM | 68.9 | 31.3 µM | > 100 µM | 14 µM | 36.7 µM | 22.2 µM | > 100 µM | 35.2 µM | > 100 µM | 3.47 µM | 32.9 µM | 19.4 µM | > 100 µM | 29.3 µM | > 100 µM |  |  |
| COc1ccc(-c2c(N)n[nH]c2-c2cc(OC)c(OC)c(OC)c2)cc1 | 1.62 µM | > 100 | 0.147 µM | > 100 µM | 0.387 µM | > 100 µM | 3.86 µM | > 100 µM | 0.0782 µM | 0.593 µM | 0.381 µM | > 100 µM | 0.285 µM | > 100 µM | 0.216 µM | > 100 µM |  |  |
| C[N+](C)(C)CC1CCCC/C1=N\O (stereo unspecified) |  | > 100 |  | > 100 µM |  | > 100 µM |  | > 100 µM |  |  |  |  |  | > 100 µM |  |  | > 100 | > 100 |
| CCOC(=O)c1ccccc1-c1c2ccc(=[N+](C)C)cc-2oc2cc(N(C)C)ccc12 | 0.167 µM | > 41.5 | 0.256 µM | > 38.7 µM | 0.352 µM | 10.3 µM | 0.129 µM | > 38.9 µM | 0.548 µM | 51.2 µM | 0.691 µM | 4.64 µM | 2.96 µM | > 37.2 µM | 0.196 µM | 11 µM |  |  |
| CN(C)CCNc1nc2ccccc2c2c(=O)c3ccccc3sc12 | 2.85 µM | 11.1 | 1.81 µM | 3.96 µM | 1.94 µM | 4.29 µM | 1.66 µM | 4.98 µM | 2.89 µM | 11.7 µM | 3.11 µM | 14.5 µM | 1.97 µM | 4.85 µM | 1.74 µM | 6.94 µM |  |  |
| O=C(O)C(=O)CBr | 17.5 µM and 17.4 µM | 31.4 | > 100 µM and 25 µM | > 100 µM and 52.2 µM | > 100 µM and 19.3 µM | > 100 µM and 38.1 µM | > 100 µM and 18.9 µM | > 100 µM and 36.7 µM | > 100 µM and 29.2 µM | > 100 µM and 72.4 µM | > 32.5 µM and 14.7 µM | > 47.3 µM and 28 µM | > 35.2 µM and 17.3 µM | > 53.1 µM and 33.1 µM | > 100 µM and 25.2 µM | > 100 µM and 60.3 µM |  |  |
| CCOC(=S)SCN1C(=O)c2ccccc2S1(=O)=O | 1.67 µM | 3.87 | 23.9 µM | 58.3 µM | 24.6 µM | 65.8 µM | 19.7 µM | 36.6 µM | 29.4 µM | 82.5 µM | 13 µM | 27.6 µM | 19.2 µM | 36.1 µM | 4.68 µM | 29.6 µM |  |  |
| CN1CCN(CCOc2ccc(-c3cnc4c(-c5ccc(F)cc5)cnn4c3)cc2)CC1 | 1.43 µM | 3.61 | 1.71 µM | 3.45 µM | 1.85 µM | 3.81 µM | 1.79 µM | 3.55 µM | 1.49 µM | 4.53 µM | 1.52 µM | 2.89 µM | 1.32 µM | 2.75 µM | 1.34 µM | 3.32 µM |  |  |
| NS(=O)(=O)c1ccc(NC(=O)Nc2ccccc2F)cc1 |  | > 100 |  | > 100 µM |  | > 100 µM |  | > 100 µM |  | > 100 µM |  | > 100 µM |  | > 100 µM |  | > 100 µM |  |  |
| CC(C)(C)OC(=O)N1N=NC2C3OC(CC3=O)C21 (stereo unspecified) |  |  |  | > 100 µM |  | > 100 µM |  | > 100 µM |  |  |  | > 100 µM |  | > 100 µM |  | > 100 µM | > 100 | > 100 |
| COc1ccc(/C=N/N=C(\[O-])c2ccncc2)cc1F.COc1ccc(/C=N\N=C(/[O-])c2ccncc2)cc1F.[Cu+2] | 18.5 µM | 34.5 | 27.3 µM | > 100 µM | 20.3 µM | 41 µM | 24.3 µM | 76.3 µM | 18 µM | 60 µM | 38.6 µM | > 100 µM | 52.6 µM | > 100 µM | 14.6 µM | 28.2 µM |  |  |
| O=C(Nc1cc(-c2cccnc2)nc(NCCCN2CCOCC2)n1)c1cc(Br)cc(C(F)(F)F)c1 | 3.26 µM | 14.5 | 10.1 µM | 22.2 µM | 2.71 µM | 9.98 µM | 2.72 µM | 14.4 µM | 2.71 µM | 8.51 µM | 2.53 µM | 10.7 µM | 1.92 µM | 5.28 µM | 1.52 µM | 3.59 µM |  |  |
| c1ccc2nc(OCCN3CC3)ccc2c1 | 10.3 µM | 25.3 | 14.4 µM | 30.7 µM | 15.2 µM | 34.1 µM | 12 µM | 33.4 µM | 20.3 µM | 62.2 µM | 9.2 µM | 28.8 µM | 13.3 µM | 46.1 µM | 16.9 µM | 35.2 µM |  |  |
| Cc1cc(S(=O)(=O)Nc2nc3cc(Cl)ccc3o2)c(SCc2ccccc2)cc1Cl | 25.6 µM | 74.7 | 23.8 µM | 59.9 µM | 21.9 µM | 40 µM | 17.8 µM | 37 µM | 21 µM | 44.3 µM | 22.9 µM | 49 µM | 8.28 µM | 25 µM | 26.1 µM | 62.2 µM |  |  |
| COc1cc([C@@H]2c3cc4c(cc3C(OC3O[C@@H]5COC(C)O[C@H]5[C@H](O)[C@H]3O)C3COC(=O)[C@@H]32)OCO4)cc(OC)c1O (stereo partly specified) | 14.4 µM | > 50 | 0.363 µM | > 39.1 µM | 0.619 µM | 2.97 µM | 11.4 µM | > 50 µM | 1.97 µM | > 31.8 µM | 1.83 µM | > 28.1 µM | 8.4 µM | > 50 µM | 1.18 µM | > 18.9 µM |  |  |
